Test results taken from PMC10838953.

Assays:
MRCKB = MRCKB (Homo sapiens, UniProt Q9Y5S2); experiment: biochemical; conditions: read-out: %Ctrl @ 2000nM
FLT1 = FLT1 (Homo sapiens, UniProt P17948); experiment: biochemical; conditions: read-out: %Ctrl @ 2000nM
DYRK1B = DYRK1B (Homo sapiens, UniProt Q9Y463); experiment: biochemical; conditions: read-out: %Ctrl @ 2000nM
MET(Y1235D) = MET(Y1235D) (Homo sapiens, UniProt P08581, Y1235D); experiment: biochemical; conditions: read-out: %Ctrl @ 2000nM
PIK3CA(E542K) = PIK3CA(E542K) (Homo sapiens, UniProt P42336, E542K); experiment: biochemical; conditions: read-out: %Ctrl @ 2000nM
LYN = LYN (Homo sapiens, UniProt P07948); experiment: biochemical; conditions: read-out: %Ctrl @ 2000nM
KIT(A829P) = KIT(A829P) (Homo sapiens, UniProt P10721, A829P); experiment: biochemical; conditions: read-out: %Ctrl @ 2000nM
PIP5K2B = PIP5K2B (Homo sapiens, UniProt P78356); experiment: biochemical; conditions: read-out: %Ctrl @ 2000nM
CAMK1B = CAMK1B (Homo sapiens, UniProt Q6P2M8); experiment: biochemical; conditions: read-out: %Ctrl @ 2000nM
ROCK1 = ROCK1 (Homo sapiens, UniProt Q13464); experiment: biochemical; conditions: read-out: %Ctrl @ 2000nM
PDGFRA = PDGFRA (Homo sapiens, UniProt P16234); experiment: biochemical; conditions: read-out: %Ctrl @ 2000nM
ULK1 = ULK1 (Homo sapiens, UniProt O75385); experiment: biochemical; conditions: read-out: %Ctrl @ 2000nM
EGFR(T790M) = EGFR(T790M) (Homo sapiens, UniProt P00533, T790M); experiment: biochemical; conditions: read-out: %Ctrl @ 2000nM
FGFR4 = FGFR4 (Homo sapiens, UniProt P22455); experiment: biochemical; conditions: read-out: %Ctrl @ 2000nM
CLK2 = CLK2 (Homo sapiens, UniProt P49760); experiment: biochemical; conditions: read-out: %Ctrl @ 2000nM
TEC = TEC (Homo sapiens, UniProt P42680); experiment: biochemical; conditions: read-out: %Ctrl @ 2000nM
VRK2 = VRK2 (Homo sapiens, UniProt Q86Y07); experiment: biochemical; conditions: read-out: %Ctrl @ 2000nM
MEK6 = MEK6 (Homo sapiens, UniProt P52564); experiment: biochemical; conditions: read-out: %Ctrl @ 2000nM
A375 cells = conditions: 4 μM, 48 h
PRKG2 = PRKG2 (Homo sapiens, UniProt Q13237); experiment: biochemical; conditions: read-out: %Ctrl @ 2000nM
AURKA = AURKA (Homo sapiens, UniProt O14965); experiment: biochemical; conditions: read-out: %Ctrl @ 2000nM
BRAF = BRAF (Homo sapiens, UniProt P15056); experiment: biochemical; conditions: read-out: %Ctrl @ 2000nM
TRKC = TRKC (Homo sapiens, UniProt Q16288); experiment: biochemical; conditions: read-out: %Ctrl @ 2000nM
PAK4 = PAK4 (Homo sapiens, UniProt O96013); experiment: biochemical; conditions: read-out: %Ctrl @ 2000nM
SNARK = SNARK (Homo sapiens, UniProt Q9H093); experiment: biochemical; conditions: read-out: %Ctrl @ 2000nM
MEK4 = MEK4 (Homo sapiens, UniProt P45985); experiment: biochemical; conditions: read-out: %Ctrl @ 2000nM
CK2 in HEK293 cells = conditions: read-out: IC50 CK2 activity in cell extracts
EGFR(S752-I759del) = EGFR(S752-I759del) (Homo sapiens, UniProt P00533, DEL752-759); experiment: biochemical; conditions: read-out: %Ctrl @ 2000nM
EPHB4 = EPHB4 (Homo sapiens, UniProt P54760); experiment: biochemical; conditions: read-out: %Ctrl @ 2000nM
EGFR(G719S) = EGFR(G719S) (Homo sapiens, UniProt P00533, G719S); experiment: biochemical; conditions: read-out: %Ctrl @ 2000nM
CDK3 = CDK3 (Homo sapiens, UniProt Q00526); experiment: biochemical; conditions: read-out: %Ctrl @ 2000nM
EPHB6 = EPHB6 (Homo sapiens, UniProt O15197); experiment: biochemical; conditions: read-out: %Ctrl @ 2000nM
NDR1 = NDR1 (Homo sapiens, UniProt Q15208); experiment: biochemical; conditions: read-out: %Ctrl @ 2000nM
ALK = ALK (Homo sapiens, UniProt Q9UM73); experiment: biochemical; conditions: read-out: %Ctrl @ 2000nM
LOK = LOK (Homo sapiens, UniProt O94804); experiment: biochemical; conditions: read-out: %Ctrl @ 2000nM
PIKFYVE = PIKFYVE (Homo sapiens, UniProt Q9Y2I7); experiment: biochemical; conditions: read-out: %Ctrl @ 2000nM
TIE1 = TIE1 (Homo sapiens, UniProt P35590); experiment: biochemical; conditions: read-out: %Ctrl @ 2000nM
EGFR(G719C) = EGFR(G719C) (Homo sapiens, UniProt P00533, G719C); experiment: biochemical; conditions: read-out: %Ctrl @ 2000nM
CSF1R = CSF1R (Homo sapiens, UniProt P07333); experiment: biochemical; conditions: read-out: %Ctrl @ 2000nM
NEK3 = NEK3 (Homo sapiens, UniProt P51956); experiment: biochemical; conditions: read-out: %Ctrl @ 2000nM
MAST1 = MAST1 (Homo sapiens, UniProt Q9Y2H9); experiment: biochemical; conditions: read-out: %Ctrl @ 2000nM
PLK4 = PLK4 (Homo sapiens, UniProt O00444); experiment: biochemical; conditions: read-out: %Ctrl @ 2000nM
CK2α′ = CK2α′ (Homo sapiens, UniProt P19784); conditions: 36 ng recombinant catalytic subunits

Chain of EGFR(T790M) (P00533 25-1210 T790M): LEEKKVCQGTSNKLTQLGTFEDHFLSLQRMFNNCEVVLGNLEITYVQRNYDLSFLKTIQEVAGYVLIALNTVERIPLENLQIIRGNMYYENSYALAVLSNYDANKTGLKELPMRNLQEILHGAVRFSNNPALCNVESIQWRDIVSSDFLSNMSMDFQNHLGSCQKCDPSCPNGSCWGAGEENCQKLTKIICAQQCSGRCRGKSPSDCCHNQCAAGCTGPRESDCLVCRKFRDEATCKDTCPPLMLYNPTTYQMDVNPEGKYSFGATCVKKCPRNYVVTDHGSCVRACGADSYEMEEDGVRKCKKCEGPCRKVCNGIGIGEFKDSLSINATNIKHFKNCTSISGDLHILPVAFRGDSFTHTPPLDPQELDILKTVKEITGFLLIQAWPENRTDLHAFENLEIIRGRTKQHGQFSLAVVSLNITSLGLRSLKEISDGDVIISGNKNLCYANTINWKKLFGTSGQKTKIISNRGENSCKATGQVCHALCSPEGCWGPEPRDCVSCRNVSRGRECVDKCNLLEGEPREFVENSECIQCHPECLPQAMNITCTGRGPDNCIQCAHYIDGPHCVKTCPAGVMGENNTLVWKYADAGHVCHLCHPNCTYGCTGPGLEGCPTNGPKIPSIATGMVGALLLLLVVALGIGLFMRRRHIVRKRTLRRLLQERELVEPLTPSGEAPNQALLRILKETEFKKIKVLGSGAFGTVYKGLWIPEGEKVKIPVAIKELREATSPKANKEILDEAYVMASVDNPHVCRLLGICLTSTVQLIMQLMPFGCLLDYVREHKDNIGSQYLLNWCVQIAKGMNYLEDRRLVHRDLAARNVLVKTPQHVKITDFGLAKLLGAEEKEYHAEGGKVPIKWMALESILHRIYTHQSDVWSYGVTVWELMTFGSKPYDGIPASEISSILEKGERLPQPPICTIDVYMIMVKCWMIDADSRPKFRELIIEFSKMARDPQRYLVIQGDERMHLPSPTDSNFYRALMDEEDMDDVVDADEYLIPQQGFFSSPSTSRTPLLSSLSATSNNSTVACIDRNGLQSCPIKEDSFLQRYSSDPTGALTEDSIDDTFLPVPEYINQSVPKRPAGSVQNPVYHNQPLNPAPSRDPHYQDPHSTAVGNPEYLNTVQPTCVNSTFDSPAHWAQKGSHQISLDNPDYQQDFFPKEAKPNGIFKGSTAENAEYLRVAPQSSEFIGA
Chain of TEC (P42680 whole entry): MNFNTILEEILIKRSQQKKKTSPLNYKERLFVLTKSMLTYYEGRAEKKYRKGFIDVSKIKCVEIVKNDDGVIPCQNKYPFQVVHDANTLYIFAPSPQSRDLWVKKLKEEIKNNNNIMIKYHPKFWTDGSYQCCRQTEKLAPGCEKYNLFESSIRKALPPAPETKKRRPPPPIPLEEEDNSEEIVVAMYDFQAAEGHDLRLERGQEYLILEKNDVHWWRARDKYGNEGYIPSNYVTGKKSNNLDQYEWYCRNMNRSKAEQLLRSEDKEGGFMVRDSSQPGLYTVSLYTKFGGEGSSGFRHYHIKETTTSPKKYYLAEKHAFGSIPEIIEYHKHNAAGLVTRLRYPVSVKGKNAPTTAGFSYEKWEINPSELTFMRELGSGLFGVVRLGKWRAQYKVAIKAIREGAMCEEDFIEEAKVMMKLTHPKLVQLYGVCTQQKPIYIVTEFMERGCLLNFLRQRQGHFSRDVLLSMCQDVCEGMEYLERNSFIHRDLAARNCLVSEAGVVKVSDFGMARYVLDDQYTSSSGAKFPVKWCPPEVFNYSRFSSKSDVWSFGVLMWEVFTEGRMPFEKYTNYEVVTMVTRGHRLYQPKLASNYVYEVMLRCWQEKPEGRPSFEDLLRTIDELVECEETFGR
Chain of FLT1 (P17948 27-1338): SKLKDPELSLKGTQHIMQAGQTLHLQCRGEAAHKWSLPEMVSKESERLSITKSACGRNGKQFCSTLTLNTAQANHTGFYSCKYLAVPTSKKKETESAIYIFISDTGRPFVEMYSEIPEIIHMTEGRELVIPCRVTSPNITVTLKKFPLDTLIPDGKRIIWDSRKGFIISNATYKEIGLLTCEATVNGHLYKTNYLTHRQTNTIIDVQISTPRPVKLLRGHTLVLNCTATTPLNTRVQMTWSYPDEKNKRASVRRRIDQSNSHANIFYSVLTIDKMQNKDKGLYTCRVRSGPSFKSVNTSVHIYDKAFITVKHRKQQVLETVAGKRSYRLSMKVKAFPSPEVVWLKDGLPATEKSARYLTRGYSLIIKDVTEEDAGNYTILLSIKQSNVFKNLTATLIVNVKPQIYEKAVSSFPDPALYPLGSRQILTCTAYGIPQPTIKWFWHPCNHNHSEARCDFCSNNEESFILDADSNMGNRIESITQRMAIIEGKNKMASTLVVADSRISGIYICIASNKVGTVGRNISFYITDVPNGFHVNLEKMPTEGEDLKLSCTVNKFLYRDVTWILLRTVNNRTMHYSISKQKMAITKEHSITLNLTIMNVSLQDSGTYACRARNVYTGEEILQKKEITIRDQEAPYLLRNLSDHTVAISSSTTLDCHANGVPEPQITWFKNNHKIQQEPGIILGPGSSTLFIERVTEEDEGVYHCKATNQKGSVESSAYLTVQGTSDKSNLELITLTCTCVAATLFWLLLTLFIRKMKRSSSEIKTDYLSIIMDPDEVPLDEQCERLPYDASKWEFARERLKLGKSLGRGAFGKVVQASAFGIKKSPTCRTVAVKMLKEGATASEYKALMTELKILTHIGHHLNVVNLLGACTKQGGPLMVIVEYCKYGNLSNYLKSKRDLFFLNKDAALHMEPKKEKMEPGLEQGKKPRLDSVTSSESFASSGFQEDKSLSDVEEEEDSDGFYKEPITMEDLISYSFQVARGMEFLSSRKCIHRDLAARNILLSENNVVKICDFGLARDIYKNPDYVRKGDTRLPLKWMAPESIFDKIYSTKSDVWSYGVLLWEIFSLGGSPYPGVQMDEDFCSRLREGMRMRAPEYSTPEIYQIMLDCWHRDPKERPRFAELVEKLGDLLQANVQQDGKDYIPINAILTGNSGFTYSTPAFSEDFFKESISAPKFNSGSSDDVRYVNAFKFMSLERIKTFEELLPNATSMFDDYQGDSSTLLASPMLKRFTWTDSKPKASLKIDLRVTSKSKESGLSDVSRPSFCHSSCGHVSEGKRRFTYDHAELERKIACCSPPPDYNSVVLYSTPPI
Chain of ULK1 (O75385 whole entry): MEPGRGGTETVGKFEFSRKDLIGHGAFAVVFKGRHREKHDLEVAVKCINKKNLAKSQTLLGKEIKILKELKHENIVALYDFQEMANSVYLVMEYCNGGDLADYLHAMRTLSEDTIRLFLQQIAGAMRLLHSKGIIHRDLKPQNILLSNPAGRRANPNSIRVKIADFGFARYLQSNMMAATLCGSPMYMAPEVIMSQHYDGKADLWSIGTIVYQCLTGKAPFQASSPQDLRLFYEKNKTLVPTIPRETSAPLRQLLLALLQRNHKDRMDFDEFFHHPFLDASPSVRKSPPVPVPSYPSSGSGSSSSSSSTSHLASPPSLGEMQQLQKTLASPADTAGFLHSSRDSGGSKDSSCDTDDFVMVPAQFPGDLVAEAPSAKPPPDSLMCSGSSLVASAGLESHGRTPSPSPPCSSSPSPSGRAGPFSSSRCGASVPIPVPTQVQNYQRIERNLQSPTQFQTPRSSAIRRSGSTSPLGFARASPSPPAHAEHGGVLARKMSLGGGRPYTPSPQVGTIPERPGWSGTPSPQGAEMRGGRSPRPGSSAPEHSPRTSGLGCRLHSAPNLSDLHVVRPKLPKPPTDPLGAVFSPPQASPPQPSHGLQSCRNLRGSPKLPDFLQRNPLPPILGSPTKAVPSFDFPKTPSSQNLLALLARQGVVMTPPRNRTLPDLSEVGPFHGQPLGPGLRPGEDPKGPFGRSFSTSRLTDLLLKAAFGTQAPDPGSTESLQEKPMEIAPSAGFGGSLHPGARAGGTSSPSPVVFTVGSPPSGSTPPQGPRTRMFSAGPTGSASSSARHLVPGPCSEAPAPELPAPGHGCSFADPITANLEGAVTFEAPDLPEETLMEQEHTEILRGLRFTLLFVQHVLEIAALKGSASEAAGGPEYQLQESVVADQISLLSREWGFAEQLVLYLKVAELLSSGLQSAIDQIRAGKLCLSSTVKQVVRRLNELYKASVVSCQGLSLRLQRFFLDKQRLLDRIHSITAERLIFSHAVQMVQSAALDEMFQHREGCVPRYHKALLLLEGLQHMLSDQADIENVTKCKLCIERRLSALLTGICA
Chain of DYRK1B (Q9Y463 whole entry): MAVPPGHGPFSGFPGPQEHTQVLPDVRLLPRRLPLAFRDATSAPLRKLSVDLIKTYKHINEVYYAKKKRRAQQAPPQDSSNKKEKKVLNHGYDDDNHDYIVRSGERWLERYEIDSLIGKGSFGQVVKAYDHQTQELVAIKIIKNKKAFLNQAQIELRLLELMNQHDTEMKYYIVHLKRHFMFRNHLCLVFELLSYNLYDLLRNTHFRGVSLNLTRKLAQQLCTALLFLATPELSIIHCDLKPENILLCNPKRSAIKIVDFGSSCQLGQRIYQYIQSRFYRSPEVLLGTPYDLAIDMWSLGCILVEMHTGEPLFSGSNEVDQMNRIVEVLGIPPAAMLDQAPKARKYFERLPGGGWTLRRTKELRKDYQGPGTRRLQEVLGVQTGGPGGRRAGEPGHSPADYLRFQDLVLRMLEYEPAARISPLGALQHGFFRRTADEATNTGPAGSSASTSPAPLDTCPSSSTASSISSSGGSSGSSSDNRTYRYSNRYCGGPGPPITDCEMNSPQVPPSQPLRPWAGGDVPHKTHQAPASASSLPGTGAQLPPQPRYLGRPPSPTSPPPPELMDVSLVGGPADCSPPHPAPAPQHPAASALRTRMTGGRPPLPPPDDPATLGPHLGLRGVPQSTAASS

**Q.** For `CC(C)COC(=O)c1[nH]c2ccc(F)cc2c1-c1cn(CC2CCN(CCNS(=O)(=O)c3ccc(CC(C)C)cc3)CC2)nn1` [AB668, isobutyl 5-fluoro-3-(1-((1-(2-((4-isobutylphenyl)sulfonamido)ethyl)piperidin-4-yl)methyl)-1H-1,2,3-triazol-4-yl)-1H-indole-2-carboxylate], which remaining activity at 2 µM (MRCKB) is on record?
**A.** Its remaining activity at 2 µM is 90%.

**Q.** What about the remaining activity at 2 µM (FLT1) of the same compound?
**A.** The remaining activity at 2 µM was 85%.

**Q.** And the remaining activity at 2 µM (DYRK1B)?
**A.** The remaining activity at 2 µM was 83%.

**Q.** What about the remaining activity at 2 µM (MET(Y1235D)) of the same compound?
**A.** Its remaining activity at 2 µM is 74%.

**Q.** What about the remaining activity at 2 µM (PIK3CA(E542K)) of the same compound?
**A.** The remaining activity at 2 µM was 99%.

**Q.** And the remaining activity at 2 µM (LYN)?
**A.** The remaining activity at 2 µM was 88%.

**Q.** What about the remaining activity at 2 µM (KIT(A829P)) of the same compound?
**A.** Its remaining activity at 2 µM is 78%.

**Q.** And the remaining activity at 2 µM (PIP5K2B)?
**A.** The remaining activity at 2 µM was 100%.

**Q.** What about the remaining activity at 2 µM (CAMK1B) of the same compound?
**A.** The remaining activity at 2 µM was 100%.

**Q.** And the remaining activity at 2 µM (ROCK1)?
**A.** The remaining activity at 2 µM was 88%.

**Q.** And the remaining activity at 2 µM (PDGFRA)?
**A.** The remaining activity at 2 µM was 86%.

**Q.** What about the remaining activity at 2 µM (ULK1) of the same compound?
**A.** Its remaining activity at 2 µM is 77%.

**Q.** What about the remaining activity at 2 µM (EGFR(T790M)) of the same compound?
**A.** The remaining activity at 2 µM was 89%.

**Q.** And the remaining activity at 2 µM (FGFR4)?
**A.** The remaining activity at 2 µM was 82%.

**Q.** What about the remaining activity at 2 µM (CLK2) of the same compound?
**A.** The remaining activity at 2 µM was 98%.

**Q.** And the remaining activity at 2 µM (TEC)?
**A.** The remaining activity at 2 µM was 95%.

**Q.** And the remaining activity at 2 µM (VRK2)?
**A.** Its remaining activity at 2 µM is 78%.

**Q.** What about the remaining activity at 2 µM (MEK6) of the same compound?
**A.** The remaining activity at 2 µM was 83%.

**Q.** What about the “proliferation, cell death and apoptosis” value (A375 cells) of the same compound?
**A.** The value was “induced significant cell proliferation arrest associated with cell death and apoptosis”.

**Q.** And the remaining activity at 2 µM (PRKG2)?
**A.** Its remaining activity at 2 µM is 97%.

**Q.** What about the remaining activity at 2 µM (AURKA) of the same compound?
**A.** The remaining activity at 2 µM was 100%.

**Q.** And the remaining activity at 2 µM (BRAF)?
**A.** The remaining activity at 2 µM was 100%.

**Q.** What about the remaining activity at 2 µM (TRKC) of the same compound?
**A.** Its remaining activity at 2 µM is 100%.

**Q.** What about the remaining activity at 2 µM (PAK4) of the same compound?
**A.** Its remaining activity at 2 µM is 95%.

**Q.** And the remaining activity at 2 µM (SNARK)?
**A.** The remaining activity at 2 µM was 94%.

**Q.** And the remaining activity at 2 µM (MEK4)?
**A.** The remaining activity at 2 µM was 89%.

**Q.** What about the IC50 (CK2 in HEK293 cells) of the same compound?
**A.** Its IC50 is 600 ± 110 nM.

**Q.** What about the remaining activity at 2 µM (EGFR(S752-I759del)) of the same compound?
**A.** The remaining activity at 2 µM was 80%.

**Q.** And the remaining activity at 2 µM (EPHB4)?
**A.** Its remaining activity at 2 µM is 79%.

**Q.** What about the remaining activity at 2 µM (EGFR(G719S)) of the same compound?
**A.** Its remaining activity at 2 µM is 68%.

**Q.** And the remaining activity at 2 µM (CDK3)?
**A.** Its remaining activity at 2 µM is 100%.

**Q.** And the remaining activity at 2 µM (EPHB6)?
**A.** The remaining activity at 2 µM was 82%.

**Q.** What about the remaining activity at 2 µM (NDR1) of the same compound?
**A.** Its remaining activity at 2 µM is 93%.

**Q.** And the remaining activity at 2 µM (ALK)?
**A.** The remaining activity at 2 µM was 91%.

**Q.** And the remaining activity at 2 µM (LOK)?
**A.** The remaining activity at 2 µM was 100%.

**Q.** And the remaining activity at 2 µM (PIKFYVE)?
**A.** The remaining activity at 2 µM was 1.7%.

**Q.** And the remaining activity at 2 µM (TIE1)?
**A.** Its remaining activity at 2 µM is 89%.

**Q.** And the remaining activity at 2 µM (EGFR(G719C))?
**A.** Its remaining activity at 2 µM is 83%.

**Q.** What about the remaining activity at 2 µM (CSF1R) of the same compound?
**A.** The remaining activity at 2 µM was 100%.

**Q.** What about the remaining activity at 2 µM (NEK3) of the same compound?
**A.** Its remaining activity at 2 µM is 71%.

**Q.** And the remaining activity at 2 µM (MAST1)?
**A.** Its remaining activity at 2 µM is 100%.

**Q.** And the remaining activity at 2 µM (PLK4)?
**A.** Its remaining activity at 2 µM is 94%.

**Q.** And the “efficacy on the catalytic activity of CK2α and CK2α′” value (CK2α′)?
**A.** Its value is “very similar efficacy”.
